Measurements taken from ChEMBL document CHEMBL1127702, “A proposed model of bradykinin bound to the rat B2 receptor and its utility for drug design” (J Med Chem, 1994).
Where a SMILES comes first, the peptide text is derived from it. [ ]: non-standard residue; d: D form. Oic = O=C(O)[C@@H]1C[C@@H]2CCCC[C@@H]2N1; Hyp = O=C(O)[C@@H]1C[C@@H](O)CN1; dTic = O=C(O)[C@H]1Cc2ccccc2CN1

Key:
Cavia porcellus = species on record: Cavia porcellus; assay: Compound was tested for bradykinin-induced contractions in guinea pig ileum; format: functional; settings: read-out: pA2 (converted)
B2 bradykinin receptor = target: T1, B2 bradykinin receptor (Cavia porcellus, UniProt O70526); assay: Binding affinity towards bradykinin receptor B2 using [3H]bradykinin
T1 sequence (O70526 whole entry): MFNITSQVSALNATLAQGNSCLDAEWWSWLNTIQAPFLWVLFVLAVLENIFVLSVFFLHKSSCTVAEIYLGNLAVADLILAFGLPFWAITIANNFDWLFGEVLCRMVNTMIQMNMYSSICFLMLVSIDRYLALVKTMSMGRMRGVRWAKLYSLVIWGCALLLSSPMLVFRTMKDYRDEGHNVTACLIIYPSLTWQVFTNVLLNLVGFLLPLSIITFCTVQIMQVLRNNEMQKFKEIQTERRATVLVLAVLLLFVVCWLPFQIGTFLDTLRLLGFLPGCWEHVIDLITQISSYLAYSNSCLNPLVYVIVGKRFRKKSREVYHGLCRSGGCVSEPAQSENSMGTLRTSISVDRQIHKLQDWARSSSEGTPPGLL

Q: With NC(N)=NCCC[C@@H](N)C(=O)N[C@@H](CCCN=C(N)N)C(=O)N1CCC[C@H]1C(=O)N1C[C@H](O)C[C@H]1C(=O)NCC(=O)N[C@@H](Cc1ccccc1)C(=O)N[C@@H](CO)C(=O)N1Cc2ccccc2C[C@@H]1C(=O)N1[C@H](C(=O)N[C@@H](CCCN=C(N)N)C(=O)O)C[C@@H]2CCCC[C@@H]21 (H-[dR]RP[Hyp]GFS[dTic][Oic]R-OH) as the compound, how does the Kb (Cavia porcellus) read?
A: Its Kb is 1.58 nM.

Q: And the Ki (B2 bradykinin receptor)?
A: Its Ki is 0.11 nM.
